From patent US9078874B2, “Composition and method for treating cognitive impairments in down syndrom subjects” (Centre National De La Recherche Scientifique—CNRS, priority 2009, dated 2015)
Read-outs that look alike come from different tables or passages of the source.

Key:
[1] = tested on: mouse hippocampal slice; settings: cited from earlier work
[2] = tested on: euploid mice; test: Dose-response in the delayed-matching-to-place task (DMTP); format: in vivo; settings: 5 mg/kg, 30 min before testing; versus placebo; p<0.05
Procedure: FIG. 5 depicts results from a dose-response effect study of α5IA. The optimal α5IA promnesiant dose was determined in mice trained in the DMTP task. FIG. 5A: Schematic representation of the DMTP protocol. Each day, mice underwent 1 acquisition trial and 3 retention trials (inter-trial interval was 60 sec). The position of the platform was changed every day, but remained constant within each session.
To determine the optimal dose of α5IA, a dose-response study was performed in euploid mice trained in the delayed-matching-to-place task (DMTP), a classical learning and memory paradigm used to assess the promnesiant effects of drugs, and in particular of GABAA α5 inverse agonists [ref 8, 9, 11].
Experiments were performed in a Morris water maze (MWM). The maze was a 150-cm diameter pool filled with opacified water kept at 19° C. and equipped with a 9 cm diameter platform submerged 1 cm under the water surface. A total of 27 mice were used. Animals were randomly and equally distributed in 3 groups (placebo, α5IA 1 mg/kg, α5IA 5 mg/kg). Training was performed during 7 days. […] Memory assessment was determined by comparing the distance to reach the platform on the first trial (acquisition trial) and the mean distance traveled in subsequent trials (retention trials).

[3] = tested on: receptor; settings: rats, 3 mg/kg, cited from earlier work
[4] = tested on: fos protein; test: Cerebral fos immunoreactivity after object recognition acquisition; format: in vivo, mice; settings: 5 mg/kg i.p.
Procedure: The mechanism of action of α5IA was investigated by quantifying neuronal activity by measuring production of fos protein in mice subjected to an object recognition task (exploration of a new environment).
The protocol that was used involved treating mice (placebo or drug). 30 minutes later, the mice were subjected to exploring a new environment, a situation in which the animal acquires and stores information spontaneously. This behavioral stimulation activates c-fos gene, and the expression product of this gene (the Fos protein) is then detected by immunohistochemistry and quantified using dedicated image analysis software. […]
Image analysis was performed as follows: regions of interest (ROIs) were photographed using an Olympus BX61 microscope (x10 objective) and fos immunostaining was quantified using a dedicated image processing software which automatically calculated the proportion of fos-stained tissue (p=stained area/total area), providing an unbiased stereological measurement of fos immunoreactivity. Four ROIs were analyzed: posterior cingulate cortex, perirhinal cortex, dentate gyms and CA1 field of the hippocampus. Each ROI was sampled on several serial sections and results were then averaged to give a reliable quantitative evaluation of local fos immunostaining.

[5] = biological target: GABAA receptors α1, α2, α3 and α5 subtypes (Homo sapiens, UniProt P31644); settings: α5 subtype; cited from earlier work
GABAA receptors α1, α2, α3 and α5 subtypes (Homo sapiens, UniProt P31644), sequence (P31644 32-462): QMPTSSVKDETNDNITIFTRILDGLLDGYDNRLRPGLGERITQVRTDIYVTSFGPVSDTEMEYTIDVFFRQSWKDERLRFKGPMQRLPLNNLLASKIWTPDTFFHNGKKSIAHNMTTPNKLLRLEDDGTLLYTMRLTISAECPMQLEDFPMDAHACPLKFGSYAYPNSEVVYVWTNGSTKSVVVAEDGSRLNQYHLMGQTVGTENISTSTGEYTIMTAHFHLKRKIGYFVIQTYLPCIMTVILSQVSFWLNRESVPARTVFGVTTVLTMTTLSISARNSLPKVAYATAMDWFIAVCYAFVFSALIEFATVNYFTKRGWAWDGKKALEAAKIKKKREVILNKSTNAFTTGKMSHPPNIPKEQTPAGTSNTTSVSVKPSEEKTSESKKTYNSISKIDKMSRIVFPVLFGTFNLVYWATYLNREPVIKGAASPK
GABAA receptors α1, α2, α3 and α5 subtypes (Homo sapiens, UniProt P31644), sequence (P28472 26-473 partner): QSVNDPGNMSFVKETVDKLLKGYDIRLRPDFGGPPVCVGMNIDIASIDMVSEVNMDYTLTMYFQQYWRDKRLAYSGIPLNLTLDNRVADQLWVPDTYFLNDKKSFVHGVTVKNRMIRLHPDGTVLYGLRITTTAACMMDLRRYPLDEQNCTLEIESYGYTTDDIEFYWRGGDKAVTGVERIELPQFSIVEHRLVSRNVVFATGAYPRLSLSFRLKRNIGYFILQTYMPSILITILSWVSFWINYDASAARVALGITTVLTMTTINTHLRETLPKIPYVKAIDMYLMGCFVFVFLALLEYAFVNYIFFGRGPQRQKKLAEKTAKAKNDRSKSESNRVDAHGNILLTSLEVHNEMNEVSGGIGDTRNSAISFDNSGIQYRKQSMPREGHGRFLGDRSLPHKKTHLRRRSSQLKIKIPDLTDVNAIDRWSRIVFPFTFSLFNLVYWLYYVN
GABAA receptors α1, α2, α3 and α5 subtypes (Homo sapiens, UniProt P31644), sequence (P18507 40-475 partner): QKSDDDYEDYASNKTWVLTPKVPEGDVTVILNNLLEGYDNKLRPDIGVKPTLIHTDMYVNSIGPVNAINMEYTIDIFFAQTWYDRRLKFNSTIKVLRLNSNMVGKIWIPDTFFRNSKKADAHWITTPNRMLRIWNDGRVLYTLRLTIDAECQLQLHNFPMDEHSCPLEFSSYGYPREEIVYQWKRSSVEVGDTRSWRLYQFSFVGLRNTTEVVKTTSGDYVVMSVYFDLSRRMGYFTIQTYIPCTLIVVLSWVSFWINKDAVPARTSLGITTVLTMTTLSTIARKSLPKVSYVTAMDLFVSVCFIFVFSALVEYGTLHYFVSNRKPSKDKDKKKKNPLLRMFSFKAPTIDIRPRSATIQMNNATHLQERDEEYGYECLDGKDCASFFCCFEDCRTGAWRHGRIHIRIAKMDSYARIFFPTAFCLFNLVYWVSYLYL

[6] = tested on: GABAA receptors α1, α2, α3 and α5 subtypes; settings: α1, α2 and α3 subtypes; cited from earlier work

For `Cc1cc(-c2nnc3c4ccccc4c(OCc4cn(C)nn4)nn23)no1` [α5IA, 3-(5-methylisoxazol-3-yl)-6-[(1-methyl-1,2,3-triazol-4-yl)methyloxy]-1,2,4-triazolo[3,4-a]phthalazine], the long-term potentiation [1] is given as “enhance long-term potentiation”, the “Performance (distance to platform) between acquisition and retention trials” value [2] is given as “significantly higher performance” and the receptor occupancy ([3]; after 2 h) is given as 80%. The receptor occupancy ([3]; after 8 h) was 60%, the “fos immunoreactivity relative to placebo-treated littermates” value ([4]; all brain regions sampled, except the dentate gyrus) was “significant increase of fos” and the “neuronal activity (fos) in the dentate gyrus” value ([4]; dentate gyrus) was “not significantly affected”. For the same molecule, the “efficacy at the α5 subtype” value [5] was “exhibits inverse agonism” and the “efficacy at the α1, α2 and α3 subtypes” value [6] was “low or antagonist efficacy”.
